For 36 molecules, IC50 results are on record in patent US10662203B2, “Pyrido[2,3-b]indole compounds for the treatment and prophylaxis of bacterial infection” (Hoffmann-La Roche Inc., priority 2017, dated 2020).

Assay in all cases: 50% growth inhibitory concentration (IC50) determination assay
What all share (type): cell-based

The test system of assay [1] is A. baumannii (ATCC17978). Particulars: Acinetobacter baumannii, ATCC17978, A. baumannii ATCC17978; Iso-Sensitest broth; 0.098 = detection limit. The protocol: (§1) Stock compounds in DMSO were serially two-fold diluted (range from 50 to 0.097 μM final concentration) in 384 wells microtiter plates and inoculated with 49 μL the bacterial suspension in Iso-Sensitest broth medium to have a final cell concentration of ˜5×10^5 CFU/mL in a final volume/well of 50 μL/well. Microtiter plates were incubated at 35±2° C. Bacterial cell growth was determined with the measurement of optical density at λ=600 nm each 20 minutes over a time course of 16 h. […] GP-6 (Example 4.131 disclosed in WO 2012/125746 A1) was used as the reference compound in Table 6-8. […] The data of IC50 over S. aureus (ATCC29213), K. pneumoniae (ATCC10031), and A. baumannii (ATCC17978) are illustrated in Table 6.

The test system of assay [2] is K. pneumoniae (ATCC10031). The settings on record: Klebsiella pneumoniae, Iso-Sensitest broth, 0.098 = detection limit. As for the experimental part:
as §1

The subject of assay [3] is S. aureus (ATCC29213). The settings on record: Staphylococcus aureus, Iso-Sensitest broth, 0.098 = detection limit. The protocol:
as §1

As to `CNc1cc(F)c(F)c2c1[nH]c1ncc(-c3cnc4c(c3)c(=O)c(C(=O)O)cn4NC)c(N3CC[C@H]4CCN(C)C4C3)c12` (stereo partly drawn) [Example 1.199], the figures for the IC50 in assay [1], in assay [2] and in assay [3] were 0.151 µM, < 0.098 µM and < 0.098 µM, respectively.
As to `CNc1cc(F)c(F)c2c1[nH]c1ncc(-c3cnc4c(c3)c(=O)c(C(=O)O)cn4NC)c(N3C[C@H]4OCCN(C)[C@H]4C3)c12` [Example 3.13A], the IC50 in assay [1] was 0.152 µM; in assay [2], < 0.098 µM; in assay [3] it was < 0.098 µM.
Consider `CNc1cc(F)c(F)c2c1[nH]c1ncc(-c3cnc4c(c3)c(=O)c(C(=O)O)cn4C)c(N3CCSCC3)c12` [Example 1.97], for which the IC50 in assay [1] is 0.507 µM; in assay [2], 0.257 µM; in assay [3], < 0.098 µM.
In the case of `CNc1cc(F)c(F)c2c1[nH]c1ncc(-c3cnc4c(c3)c(=O)c(C(=O)O)cn4CCN(C)C)c(N3CCC(F)(F)C3)c12` [Example 2.02], the IC50 in assay [1] is 0.992 µM; in assay [2], 0.167 µM; in assay [3], < 0.098 µM.
Take `CNc1cc(F)c(F)c2c1[nH]c1ncc(-c3cnc4c(c3)c(=O)c(C(=O)O)cn4NC)c(N3CC4[C@H](CC[C@H]4N(C)C)C3)c12` (stereo partly drawn) [Example 1.284]: the IC50 was 0.111 µM in assay [1], < 0.098 µM in assay [2] and < 0.098 µM in assay [3].
In the case of `CNc1cc(F)c(F)c2c1[nH]c1ncc(-c3cnc4c(c3)c(=O)c(C(=O)O)cn4CC3(O)CC3)c(N(C)C)c12` [Example 1.146], the IC50 in assay [1] was 0.525 µM; in assay [2] it was 0.411 µM; in assay [3], < 0.098 µM.
For `CNc1cc(F)c(F)c2c1[nH]c1ncc(-c3cnc4c(c3)c(=O)c(C(=O)O)cn4CCN3CCN(C)CC3)c(N(C)C)c12` [Example 1.29], the IC50 is 0.405 µM in assay [1], < 0.098 µM in assay [2] and < 0.098 µM in assay [3].
`CNc1cc(F)c(F)c2c1[nH]c1ncc(-c3cnc4c(c3)c(=O)c(C(=O)O)cn4[C@@H]3CCNC3)c(N3CCCC3)c12` [Example 1.156]: the IC50 was 0.478 µM in assay [1], < 0.098 µM in assay [2] and < 0.098 µM in assay [3].
For the molecule `CNc1cc(F)c(F)c2c1[nH]c1ncc(-c3cnc4c(c3)c(=O)c(C(=O)O)cn4NC)c(N3CCC4(CCN4C)C3)c12` (stereo not drawn) [Example 1.238], the IC50 in assay [1] is 0.308 µM; in assay [2], < 0.098 µM; in assay [3], < 0.098 µM.
Consider `CNc1cc(F)c(F)c2c1[nH]c1ncc(-c3cnc4c(c3)c(=O)c(C(=O)O)cn4C)c(N3CCC(OC)CC3)c12` [Example 1.40], for which the results for the IC50 in assay [1], in assay [2] and in assay [3] were 0.364 µM, 0.264 µM and < 0.098 µM, respectively.
Taken in the same sequence, the figures for `CNc1cc(F)c(F)c2c1[nH]c1ncc(-c3cnc4c(c3)c(=O)c(C(=O)O)cn4C)c(N3C[C@@H]4[C@@H](C3)OCCN4C)c12` [Example 3.24B] were 0.371 µM, < 0.098 µM and < 0.098 µM.
Turning to `CNc1cc(F)c(F)c2c1[nH]c1ncc(-c3cnc4c(c3)c(=O)c(C(=O)O)cn4C)c(N3CC4[C@H](CC[C@H]4CN(C)C)C3)c12` (stereo partly drawn) [Example 1.218], the IC50 is 0.497 µM in assay [1], < 0.098 µM in assay [2] and < 0.098 µM in assay [3].
As for `CNc1cc(F)c(F)c2c1[nH]c1ncc(-c3cnc4c(c3)c(=O)c(C(=O)O)cn4C)c(N3CCN(C)CC3)c12` [Example 1.226], the IC50 in assay [1] was 0.207 µM; in assay [2], < 0.098 µM; in assay [3] it was 0.11 µM.
For `CNc1cc(F)cc2c1[nH]c1ncc(-c3cnc4c(c3)c(=O)c(C(=O)O)cn4C)c(N3CCO[C@@H](C)C3)c12` [Example 1.50], in that order: 0.112 µM, < 0.098 µM and < 0.098 µM.
Taken in the same sequence, the figures for `CCn1cc(C(=O)O)c(=O)c2cc(-c3cnc4[nH]c5c(NC)cc(F)cc5c4c3N(C)C)cnc21` [Example 1.19] were 0.283 µM, 0.145 µM and < 0.098 µM.
Consider `CNc1c(F)cc(F)c2c1[nH]c1ncc(-c3cnc4c(c3)c(=O)c(C(=O)O)cn4C)c(N3CCOCC3)c12` [Example 1.105], for which the IC50 in assay [1] was 0.216 µM; in assay [2], < 0.098 µM; in assay [3], 5.22 µM.
Taken in the same sequence, the figures for `CNc1cc(F)c(F)c2c1[nH]c1ncc(-c3cnc4c(c3)c(=O)c(C(=O)O)cn4C)c(N3CC[C@@H](CN4CCOCC4)C3)c12` [Example 1.174] were 0.784 µM, 0.224 µM and < 0.098 µM.
With `CNc1cc(F)c(F)c2c1[nH]c1ncc(-c3cnc4c(c3)c(=O)c(C(=O)O)cn4C)c(N3CCOCC3)c12` [Example 1.08], the IC50 in assay [1] is 0.155 µM; in assay [2], < 0.098 µM; in assay [3] it was < 0.098 µM.
With `CCN(CC)CCn1cc(C(=O)O)c(=O)c2cc(-c3cnc4[nH]c5c(NC)cc(F)c(F)c5c4c3N3CCOCC3)cnc21` [Example 1.73], the IC50 is 0.238 µM in assay [1], < 0.098 µM in assay [2] and < 0.098 µM in assay [3].
For the molecule `CNc1cc(F)c(F)c2c1[nH]c1ncc(-c3cnc4c(c3)c(=O)c(C(=O)O)cn4NC)c(N3C[C@@H]4OCCN(C)[C@@H]4C3)c12` [Example 3.13B], the IC50 in assay [1] was 0.16 µM; in assay [2], < 0.098 µM; in assay [3] it was < 0.098 µM.
In the case of `CNc1cc(F)c(F)c2c1[nH]c1ncc(-c3cnc4c(c3)c(=O)c(C(=O)O)cn4C3CCN(C)C3)c(N3CCC(F)(F)C3)c12` (stereo not drawn) [Example 2.03], the IC50 was 0.562 µM in assay [1], < 0.098 µM in assay [2] and < 0.098 µM in assay [3].
Regarding `CNc1cc(F)c(F)c2c1[nH]c1ncc(-c3cnc4c(c3)c(=O)c(C(=O)O)cn4C3CC3)c(N(C)C)c12` [Example 1.95], the IC50 was 0.276 µM in assay [1], 0.282 µM in assay [2] and < 0.098 µM in assay [3].
With `CNc1cc(F)c(F)c2c1[nH]c1ncc(-c3cnc4c(c3)c(=O)c(C(=O)O)cn4C)c(N3CCC(F)(CN(C)C)C3)c12` (stereo not drawn) [Example 1.108], the IC50 in assay [1] is 0.088 µM; in assay [2], < 0.098 µM; in assay [3], < 0.098 µM.
On to `CNc1cc(F)c(F)c2c1[nH]c1ncc(-c3cnc4c(c3)c(=O)c(C(=O)O)cn4C)c(N3C[C@@H]4OCCN(C)[C@@H]4C3)c12` [Example 3.14B], for which the IC50 is 0.103 µM in assay [1], < 0.098 µM in assay [2] and < 0.098 µM in assay [3].
For the molecule `CNc1cc(F)c(F)c2c1[nH]c1ncc(-c3cnc4c(c3)c(=O)c(C(=O)O)cn4NC3CCOCC3)c(N(C)C)c12` [Example 1.91], the values for the IC50 in assay [1], in assay [2] and in assay [3] were 0.237 µM, 0.165 µM and < 0.098 µM, respectively.
For `CCN1CCN(c2c(-c3cnc4c(c3)c(=O)c(C(=O)O)cn4C)cnc3[nH]c4c(NC)cc(F)c(F)c4c23)CC1` [Example 1.233], in that order: 0.3 µM, < 0.098 µM and 0.169 µM.
For `CNc1cc(F)c(F)c2c1[nH]c1ncc(-c3cnc4c(c3)c(=O)c(C(=O)O)cn4C3CCNC3)c(N3CCCC3)c12` (stereo not drawn) [Example 1.65], the results for the IC50 in assay [1], in assay [2] and in assay [3] were 0.378 µM, < 0.098 µM and < 0.098 µM, respectively.
On to `CNc1cc(Cl)cc2c1[nH]c1ncc(-c3cnc4c(c3)c(=O)c(C(=O)O)cn4C)c(N3CC4C(N(C)C)CO[C@@H]4C3)c12` (stereo partly drawn) [Example 1.277], for which the 50% inhibitory concentration (IC50) was 0.48 µM in assay [1], < 0.098 µM in assay [2] and < 0.098 µM in assay [3].
In the case of `CNc1cc(F)cc2c1[nH]c1ncc(-c3cnc4c(c3)c(=O)c(C(=O)O)cn4C)c(N3CCC(CNC4CC4)C3)c12` (stereo not drawn) [Example 1.136], the results for the IC50 in assay [1], in assay [2] and in assay [3] were 0.172 µM, < 0.098 µM and < 0.098 µM, respectively.
On to `CNc1cc(F)c(F)c2c1[nH]c1ncc(-c3cnc4c(c3)c(=O)c(C(=O)O)cn4C)c(N3CCO[C@@H](C)C3)c12` [Example 1.36], for which the IC50 was 0.147 µM in assay [1], < 0.098 µM in assay [2] and < 0.098 µM in assay [3].
With `CNc1cc(F)cc2c1[nH]c1ncc(-c3cnc4c(c3)c(=O)c(C(=O)O)cn4C3CCN(C)C3)c(N3CCOCC3)c12` (stereo not drawn) [Example 1.81], the figures for the IC50 in assay [1], in assay [2] and in assay [3] were 0.164 µM, < 0.098 µM and < 0.098 µM, respectively.
`CNc1cc(F)c(F)c2c1[nH]c1ncc(-c3cnc4c(c3)c(=O)c(C(=O)O)cn4N(C)C)c(N3CCOCC3)c12` [Example 1.180]: the IC50 in assay [1] is 0.353 µM; in assay [2] it was 0.112 µM; in assay [3], < 0.098 µM.
As to `CNc1cc(F)cc2c1[nH]c1ncc(-c3cnc4c(c3)c(=O)c(C(=O)O)cn4CC(C)(C)N(C)C)c(N3CCOCC3)c12` [Example 1.69], the results for the IC50 in assay [1], in assay [2] and in assay [3] were 0.438 µM, < 0.098 µM and < 0.098 µM, respectively.
For the molecule `CNc1cc(F)c(F)c2c1[nH]c1ncc(-c3cnc4c(c3)c(=O)c(C(=O)O)cn4C)c(N3CCC(CN(C)CCOC)C3)c12` (stereo not drawn) [Example 1.142], the results for the IC50 in assay [1], in assay [2] and in assay [3] were 0.195 µM, < 0.098 µM and < 0.098 µM, respectively.
Turning to `CNc1cc(F)cc2c1[nH]c1ncc(-c3cnc4c(c3)c(=O)c(C(=O)O)cn4C)c(N3CCC(NC4CC4)C3)c12` (stereo not drawn) [Example 1.114], the IC50 in assay [1] was 0.103 µM; in assay [2], < 0.098 µM; in assay [3], < 0.098 µM.
Consider `CNc1cc(Cl)cc2c1[nH]c1ncc(-c3cnc4c(c3)c(=O)c(C(=O)O)cn4C)c(N3C[C@H]4CCN(C)[C@H]4C3)c12` [Example 3.15A], for which the figures for the IC50 in assay [1], in assay [2] and in assay [3] were 0.208 µM, < 0.098 µM and < 0.098 µM, respectively.

Usually IC50 stands for the point on the concentration scale where inhibition reaches its midpoint. Higher therefore signals weaker potency.
